Data set [1] deals with T1, rat histamine H3 receptor (Rattus norvegicus, UniProt Q9QYN8).
T1 construct: encoding the entire 445-amino-acid rat histamine H3 receptor; expressed in transfected cells; membrane preparation
In words: Rat H3 radioligand binding ([3H]-N-alpha-methylhistamine, SPA). To be noted: read-out: Rat H3 kI. A digest of the protocol:
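Membranes from CHO-A3 cells stably expressing full-length rat H3 receptor (10 μg protein/well) incubated 4 h at room temperature, protected from light, with ~1 nM [3H]-N-alpha-methylhistamine and compound (0.01 nM-30 μM) in 50 mM Tris HCl pH 7.4, 5 mM MgCl2, 0.1% BSA. Binding read by SPA; 10 μM clobenpropit defined non-specific binding.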

The next data set concerns the target T2, human H3 receptor (Homo sapiens, UniProt Q9Y5N1).
T2 construct: expressed in transfected cells
Nature of the data set: Human H3 radioligand binding ([3H]-N-alpha-methylhistamine, SPA). To be noted: read-out: Human H3 Ki. The gist of the method: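 SPA competition binding on membranes from CHO cells stably expressing human H3 receptor (10 μg protein/well) with ~1 nM [3H]-N-alpha-methylhistamine and compound at 0.01 nM-30 μM. Incubation 4 h at room temperature in 50 mM Tris-HCl pH 7.4, 5 mM MgCl2, 0.1% BSA; non-specific binding defined with 10 μM clobenpropit.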

T1 sequence (Q9QYN8 whole entry): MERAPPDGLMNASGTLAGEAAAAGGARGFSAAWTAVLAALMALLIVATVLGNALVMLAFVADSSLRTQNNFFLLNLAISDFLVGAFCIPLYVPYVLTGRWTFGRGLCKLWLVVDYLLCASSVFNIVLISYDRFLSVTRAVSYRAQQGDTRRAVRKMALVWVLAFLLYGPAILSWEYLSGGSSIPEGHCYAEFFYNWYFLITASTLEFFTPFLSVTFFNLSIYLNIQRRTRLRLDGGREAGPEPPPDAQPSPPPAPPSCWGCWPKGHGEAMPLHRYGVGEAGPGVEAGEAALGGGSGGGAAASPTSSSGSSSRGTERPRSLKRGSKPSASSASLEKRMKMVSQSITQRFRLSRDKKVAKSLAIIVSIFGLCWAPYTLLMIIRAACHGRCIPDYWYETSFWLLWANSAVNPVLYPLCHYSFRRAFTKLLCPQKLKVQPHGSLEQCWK
T2 sequence (Q9Y5N1 whole entry): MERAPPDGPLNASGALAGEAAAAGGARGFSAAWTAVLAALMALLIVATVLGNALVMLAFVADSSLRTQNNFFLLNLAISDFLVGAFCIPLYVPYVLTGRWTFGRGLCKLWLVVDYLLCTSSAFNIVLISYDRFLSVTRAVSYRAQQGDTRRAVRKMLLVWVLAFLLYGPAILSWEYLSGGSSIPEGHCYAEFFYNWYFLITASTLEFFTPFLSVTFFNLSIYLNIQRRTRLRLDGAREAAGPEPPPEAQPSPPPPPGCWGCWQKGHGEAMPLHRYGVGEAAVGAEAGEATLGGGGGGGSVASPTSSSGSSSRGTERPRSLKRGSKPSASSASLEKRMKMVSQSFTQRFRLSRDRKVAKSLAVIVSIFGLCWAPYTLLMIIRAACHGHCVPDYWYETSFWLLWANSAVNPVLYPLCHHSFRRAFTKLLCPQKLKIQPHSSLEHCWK

On to `c1cc2c(cc1C1CCSCC1)COC1(CCN(C3CCC3)CC1)O2` [Example 480], for which the melting point (usually the temperature of the solid-liquid transition) was in the range of 153 to 155 °C. Further, the inhibition constant Ki – broadly, the equilibrium dissociation constant of an inhibitor or competing ligand from its target – in data set [1] was < 0.2 µM. Moreover, the inhibition constant Ki on human H3 receptor was < 0.2 µM.
The compound `COc1ccc(Oc2ccc3c(c2)CCC2(CCN(C4CCC4)CC2)O3)cn1` [Example 481] yielded a melting point of 232 to 234 °C. Also, in data set [1], the inhibition constant Ki is < 0.2 µM. The inhibition constant (Ki) at human H3 receptor is < 0.2 µM.
The compound `O=C(C1CC(O)(c2ccc3c(c2)COC2(CCN(C4CCC4)CC2)O3)C1)N1CCCC1` (stereo not drawn) [Example 482] showed a melting point of 157 to 159 °C. The Ki in data set [1] was < 0.2 µM. The inhibition constant (Ki) on human H3 receptor was < 0.2 µM.
Take `COc1ccnc(-c2ccc3c(c2)COC2(CCN(C4CCC4)CC2)O3)n1` [Example 483]: the melting point lay in the range of 100 to 102 °C. Also, in data set [1], the inhibitory constant (Ki) is < 0.2 µM. Further, the inhibitory constant (Ki) at human H3 receptor is < 0.2 µM.
With `O=c1ccc(Oc2ccc3c(c2)CCC2(CCN(C4CCC4)CC2)O3)c[nH]1` [Example 485], the melting point was 284 to 286 °C. In addition, the Ki in data set [1] was < 0.2 µM. Further, at human H3 receptor, the Ki is < 0.2 µM.
The compound `COc1cc(Oc2ccc3c(c2)CCC2(CCN(C4CCC4)CC2)O3)ccn1` [Example 486] displayed a melting point of 125 to 127 °C. For the same compound, the Ki in data set [1] is < 0.2 µM. Moreover, the Ki on human H3 receptor was < 0.2 µM.
With `CCOC(=O)C1CC=C(c2ccc3c(c2)COC2(CCN(C4CCC4)CC2)O3)CC1` (stereo not drawn) [Example 487], the melting point was 263 to 265 °C. In addition, in data set [1], the Ki was < 0.2 µM. For the same compound, the Ki on human H3 receptor was < 0.2 µM.
The compound `O=c1[nH]cccc1-c1ccc2c(c1)COC1(CCN(C3CCC3)CC1)O2` [Example 488] returned a melting point of 167 to 169 °C. Moreover, the Ki in data set [1] is < 0.2 µM. Moreover, on human H3 receptor, the inhibition constant Ki was < 0.2 µM.
`O=S1(=O)CCC(c2ccc3c(c2)COC2(CCN(C4CCC4)CC2)O3)CC1` [Example 489]: the melting point lay in the range of 210 to 211 °C. Also, the Ki in data set [1] is < 0.2 µM. At human H3 receptor, the inhibitory constant (Ki) is < 0.2 µM.
`O=S1(=O)CCC(Oc2ccc3c(c2)CCC2(CCN(C4CCC4)CC2)O3)C1` (stereo not drawn) [Example 490] yielded a melting point of 252 to 254 °C. For the same compound, the Ki in data set [1] was < 0.2 µM. The inhibitory constant (Ki) on human H3 receptor is < 0.2 µM.
The compound `O=S1(=O)CCC(c2ccc3c(c2)COC2(CCN(C4CCC4)CC2)O3)C1` (stereo not drawn) [Example 491] returned a melting point of 151 to 152 °C. Further, in data set [1], the Ki was < 0.2 µM. In addition, the Ki on human H3 receptor was < 0.2 µM.
As for `OC1(c2ccc3c(c2)COC2(CCN(C4CCC4)CC2)O3)CCC2(CC1)OCCO2` [Example 492], the melting point fell in the range of 191 to 192 °C. Moreover, the Ki in data set [1] was < 0.2 µM. In addition, the Ki at human H3 receptor is < 0.2 µM.
For `O=c1cc(Oc2ccc3c(c2)CCC2(CCN(C4CCC4)CC2)O3)cc[nH]1` [Example 493], the melting point was in the range of 186 to 188 °C. Also, the inhibition constant (Ki) in data set [1] is < 0.2 µM. Moreover, at human H3 receptor, the Ki is < 0.2 µM.
As for `CNC(=O)C1CC(O)(c2ccc3c(c2)COC2(CCN(C4CCC4)CC2)O3)C1` (stereo not drawn) [Example 494], the melting point lay in the range of 246 to 248 °C. Also, the Ki in data set [1] is < 0.2 µM. For the same compound, the Ki on human H3 receptor was < 0.2 µM.
Regarding `O=c1ncc(Oc2ccc3c(c2)CCC2(CCN(C4CCC4)CC2)O3)c[nH]1` [Example 495], the melting point is 259 to 261 °C. The inhibition constant (Ki) in data set [1] is < 0.2 µM. In addition, on human H3 receptor, the Ki is < 0.2 µM.
`OC(c1ccc2c(c1)COC1(CCN(C3CCC3)CC1)O2)C1CCSCC1` (stereo not drawn) [Example 496] showed a melting point of 85 to 90 °C. In data set [1], the Ki is < 0.2 µM. Moreover, at human H3 receptor, the inhibitory constant (Ki) is < 0.2 µM.
`O=C1CC=C(c2ccc3c(c2)COC2(CCN(C4CCC4)CC2)O3)CC1` [Example 497] returned a melting point of 153 to 155 °C. Besides, the inhibitory constant (Ki) in data set [1] is < 0.2 µM. Moreover, at human H3 receptor, the Ki was < 0.2 µM.
Consider `OC1CCC(c2ccc3c(c2)COC2(CCN(C4CCC4)CC2)O3)CC1` (stereo not drawn) [Example 498], for which the melting point was 150 to 153 °C. Besides, the Ki in data set [1] was < 0.2 µM. For the same compound, the Ki at human H3 receptor is < 0.2 µM.
Regarding `c1cc2c(cc1OCC1CCSCC1)CCC1(CCN(C3CCC3)CC1)O2` [Example 499], the melting point lay in the range of 117 to 118 °C. For the same compound, the Ki in data set [1] is < 0.2 µM. In addition, the Ki on human H3 receptor was < 0.2 µM.
In turn, `OC1(c2ccc3c(c2)COC2(CCN(C4CCC4)CC2)O3)CCC1` [Example 501] gave a melting point of 64 to 66 °C. For the same compound, the Ki in data set [1] is < 0.2 µM. The inhibition constant Ki at human H3 receptor is < 0.2 µM.
Turning to `COc1ccc(/C=C/c2ccc3c(c2)COC2(CCN(C4CCC4)CC2)O3)cn1` [Example 502], the melting point was in the range of 144 to 146 °C. Besides, the Ki in data set [1] was < 0.2 µM. On human H3 receptor, the inhibitory constant (Ki) was < 0.2 µM.
The compound `COc1ncc(Oc2ccc3c(c2)CCC2(CCN(C4CCC4)CC2)O3)cn1` [Example 503] displayed a melting point of 227 to 229 °C. The inhibition constant (Ki) in data set [1] was < 0.2 µM. On human H3 receptor, the inhibition constant (Ki) is < 0.2 µM.
`COc1ccc(C(O)c2ccc3c(c2)COC2(CCN(C4CCC4)CC2)O3)cn1` (stereo not drawn) [Example 504] yielded a melting point of 78 to 80 °C. In addition, in data set [1], the Ki was < 0.2 µM. Besides, the Ki at human H3 receptor is < 0.2 µM.
Consider `OC1(c2ccc3c(c2)COC2(CCN(C4CCC4)CC2)O3)COC1` [Example 505], for which the melting point fell in the range of 180 to 183 °C. Moreover, the Ki in data set [1] is < 0.2 µM. Moreover, the Ki on human H3 receptor is < 0.2 µM.
As to `OC1(c2ccc3c(c2)COC2(CCN(C4CCC4)CC2)O3)CCOC1` (stereo not drawn) [Example 506], the melting point turned out to be 50 °C. In addition, in data set [1], the inhibition constant (Ki) is < 0.2 µM. Besides, the inhibition constant (Ki) at human H3 receptor is < 0.2 µM.
With `c1cc2c(cc1C1CCOC1)COC1(CCN(C3CCC3)CC1)O2` (stereo not drawn) [Example 507], the melting point lay in the range of 249 to 250 °C. For the same compound, in data set [1], the inhibition constant Ki is < 0.2 µM. At human H3 receptor, the inhibition constant (Ki) is < 0.2 µM.
`OC(c1ccc(Cl)nc1)c1ccc2c(c1)COC1(CCN(C3CCC3)CC1)O2` (stereo not drawn) [Example 508] yielded a melting point of 79 to 81 °C. The inhibition constant (Ki) in data set [1] was < 0.2 µM. In addition, the Ki on human H3 receptor is < 0.2 µM.
For `OC1(c2ccc3c(c2)COC2(CCN(C4CCC4)CC2)O3)CCCC1` [Example 509], the melting point lay in the range of 149 to 151 °C. Further, the Ki in data set [1] was < 0.2 µM. Besides, on human H3 receptor, the Ki is < 0.2 µM.
In turn, `COc1ccc(/C=C/c2ccc3c(c2)COC2(CCN(C4CCC4)CC2)O3)nn1` [Example 510] gave a melting point of 168 to 170 °C. In addition, the inhibition constant Ki in data set [1] is < 0.2 µM. Moreover, at human H3 receptor, the Ki is < 0.2 µM.
`O=S1(=O)CCC(C(O)c2ccc3c(c2)COC2(CCN(C4CCC4)CC2)O3)CC1` (stereo not drawn) [Example 511] had a melting point of 127 to 129 °C. Besides, the inhibitory constant (Ki) in data set [1] was < 0.2 µM. In addition, the Ki at human H3 receptor is < 0.2 µM.
`OC1(c2ccc3c(c2)COC2(CCN(C4CCC4)CC2)O3)CCCCC1` [Example 512] had a melting point of 164 to 165 °C. In addition, in data set [1], the inhibitory constant (Ki) was < 0.2 µM. Besides, the Ki on human H3 receptor was < 0.2 µM.
Compound `OC(c1ccc(F)cc1)c1ccc2c(c1)COC1(CCN(C3CCC3)CC1)O2` (stereo not drawn) [Example 513] returned a melting point of 58 to 62 °C. In data set [1], the Ki was < 0.2 µM. The inhibitory constant (Ki) at human H3 receptor was < 0.2 µM.
`CCNC(=O)C1CCC(O)(c2ccc3c(c2)COC2(CCN(C4CCC4)CC2)O3)CC1` (stereo not drawn) [Example 514] gave a melting point of 195 to 196 °C. Moreover, the inhibitory constant (Ki) in data set [1] is < 0.2 µM. The inhibition constant Ki at human H3 receptor is < 0.2 µM.
`COCCN1CC(COc2ccc3c(c2)CCC2(CCN(C4CCC4)CC2)O3)CC1=O` (stereo not drawn) [Example 515] came in with a melting point of 194 to 196 °C. Further, the inhibition constant (Ki) in data set [1] is < 0.2 µM. Further, the inhibition constant Ki on human H3 receptor was < 0.2 µM.
As to `COc1ccc(Cc2ccc3c(c2)COC2(CCN(C4CCC4)CC2)O3)cn1` [Example 516], the melting point lay in the range of 229 to 231 °C. The inhibition constant Ki in data set [1] was < 0.2 µM. Besides, the Ki on human H3 receptor was < 0.2 µM.
`O=S1(=O)CCC(O)(c2ccc3c(c2)COC2(CCN(C4CCC4)CC2)O3)CC1` [Example 517]: the melting point lay in the range of 240 to 241 °C. In addition, the Ki in data set [1] is < 0.2 µM. Further, the Ki at human H3 receptor was < 0.2 µM.
`CN1CC(COc2ccc3c(c2)CCC2(CCN(C4CCC4)CC2)O3)CC1=O` (stereo not drawn) [Example 519] yielded a melting point of 234 to 236 °C. Also, in data set [1], the Ki was < 0.2 µM. Also, at human H3 receptor, the inhibition constant (Ki) is < 0.2 µM.
Take `OC1CC=C(c2ccc3c(c2)COC2(CCN(C4CCC4)CC2)O3)CC1` (stereo not drawn) [Example 525]: the melting point lay in the range of 128 to 132 °C. Besides, in data set [1], the inhibition constant Ki was < 0.2 µM. In addition, the Ki on human H3 receptor was < 0.2 µM.
On to `O=c1ccc(C(O)c2ccc3c(c2)COC2(CCN(C4CCC4)CC2)O3)c[nH]1` (stereo not drawn) [Example 526], for which the melting point lay in the range of 217 to 219 °C. The Ki in data set [1] was < 0.2 µM. Moreover, on human H3 receptor, the Ki was < 0.2 µM.
`O=c1ccc(Cc2ccc3c(c2)COC2(CCN(C4CCC4)CC2)O3)c[nH]1` [Example 527]: the melting point lay in the range of 194 to 196 °C. The Ki in data set [1] is < 0.2 µM. Moreover, the Ki on human H3 receptor was < 0.2 µM.
With `O=c1ccc(CCc2ccc3c(c2)COC2(CCN(C4CCC4)CC2)O3)c[nH]1` [Example 528], the melting point is 183 to 185 °C. Further, the Ki in data set [1] was < 0.2 µM. Moreover, the Ki on human H3 receptor is < 0.2 µM.
In the case of `c1ccc(COc2ccc(-c3ccc4c(c3)COC3(CCN(C5CCC5)CC3)O4)cn2)cc1` [Example 529], the melting point lay in the range of 139 to 141 °C. The Ki in data set [1] is 0.2 to 1 µM. For the same compound, the inhibition constant Ki on human H3 receptor is < 0.2 µM.
On the same counts, the results for `O=C1CCC(c2ccc3c(c2)COC2(CCN(C4CCC4)CC2)O3)CN1` (stereo not drawn) [Example 530] are 233 to 235 °C, < 0.2 µM and < 0.2 µM.

These data come from patent US8513232B2, “Substituted spirocyclic piperidine derivatives as histamine-3 (H3) receptor ligands” (Cephalon, Inc., priority 2008, dated 2013).
